This note sets out measurements from patent publication US12448394B2, “Heterocyclic pyrazole derivatives as type III receptor tyrosine kinase inhibitors” (DEVELOPMENT CENTER FOR BIOTECHNOLOGY, priority 2019, dated 2025).

In this assay the target is T1, FLT3-D835Y mutant kinase (Homo sapiens, UniProt P36888, D835Y).
T1 construct: purchased SignalChem
T1 sequence (P36888 27-993 D835Y): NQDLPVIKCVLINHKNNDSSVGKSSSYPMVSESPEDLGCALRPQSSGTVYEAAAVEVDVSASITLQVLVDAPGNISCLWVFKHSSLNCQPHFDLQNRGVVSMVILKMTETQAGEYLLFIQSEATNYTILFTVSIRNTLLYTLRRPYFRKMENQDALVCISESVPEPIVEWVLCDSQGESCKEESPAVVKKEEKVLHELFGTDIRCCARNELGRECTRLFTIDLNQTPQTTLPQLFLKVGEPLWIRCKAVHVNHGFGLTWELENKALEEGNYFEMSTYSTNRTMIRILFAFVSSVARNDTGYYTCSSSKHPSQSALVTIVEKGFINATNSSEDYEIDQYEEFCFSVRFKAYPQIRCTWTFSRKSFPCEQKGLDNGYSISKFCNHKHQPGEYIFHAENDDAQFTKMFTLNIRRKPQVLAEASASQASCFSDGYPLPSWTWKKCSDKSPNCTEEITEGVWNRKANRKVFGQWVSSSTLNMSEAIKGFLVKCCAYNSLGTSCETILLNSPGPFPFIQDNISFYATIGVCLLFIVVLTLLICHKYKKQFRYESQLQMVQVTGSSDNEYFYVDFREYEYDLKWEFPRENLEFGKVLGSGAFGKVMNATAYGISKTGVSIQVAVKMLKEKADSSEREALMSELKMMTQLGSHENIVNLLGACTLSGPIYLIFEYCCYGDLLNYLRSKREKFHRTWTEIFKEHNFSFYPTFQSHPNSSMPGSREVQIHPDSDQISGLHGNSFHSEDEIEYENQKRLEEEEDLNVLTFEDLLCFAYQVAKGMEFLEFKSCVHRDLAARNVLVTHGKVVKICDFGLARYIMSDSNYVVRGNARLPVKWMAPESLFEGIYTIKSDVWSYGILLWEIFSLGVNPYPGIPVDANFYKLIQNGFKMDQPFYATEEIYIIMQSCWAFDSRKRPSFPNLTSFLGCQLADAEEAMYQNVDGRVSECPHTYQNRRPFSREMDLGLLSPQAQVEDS
Kind of assay: FLT3-D835Y mutant kinase assay (AlphaScreen). It is filed as biochemical. As to conditions: read-out: Ranking of IC50 values, FLT3-D835Y. In a few lines: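 AlphaScreen readout of biotin-poly(Glu4:Tyr1) phosphorylation by 1 ng recombinant FLT3-D835Y. Conditions were 10 μM ATP, 10 mM MgCl2, MOPS pH 7.0, 30 min at 30 °C, EDTA stop. Compounds were serially diluted in duplicate to derive IC50.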
On the technique in general: Alpha assays give light when donor and acceptor beads are brought close together.

One may read the IC50 as the midpoint of a concentration-inhibition curve.

With `Cn1ncc2ccc(-c3n[nH]c4c3Cc3sc(-c5ccc(N)nc5)cc3-4)cc21` [Compound 92, 5-(3-(1-methyl-1H-indazol-6-yl)-1,4-dihydro-thieno[2′,3′:4,5]cyclopenta [1,2-c]pyrazol-6-yl) pyridin-2-amine], the IC50 is under 1 nM.
On to `COc1ccc(-c2cc3c(s2)Cc2c(-c4ccc5cnn(C)c5c4)n[nH]c2-3)cn1` [Compound 4, 6-(6-methoxypyridin-3-yl)-3-(1-methyl-1H-indazol-6-yl)-1,4-dihydrothieno [2′,3′:4,5]cyclopenta[1,2-c] pyrazole], for which the IC50 was under 1 nM.
For the molecule `Cn1ncc2ccc(-c3n[nH]c4c3Cc3sc(-c5ccc(CN6CCOCC6)cc5OC(F)(F)F)cc3-4)cc21` [Compound 90, 4-(4-(3-(1-methyl-1H-indazol-6-yl)-1,4-dihydro-thieno[2′,3′:4,5]cyclopenta [1,2-c]pyrazol-6-yl)-3-(trifluoromethoxy)benzyl) morpholine], the IC50 lay in the range of 1 to 10 nM.
As for `Cc1cc(CN2CCOCC2)ccc1-c1cc2c(s1)Cc1c(-c3ccc4cnn(C)c4c3)n[nH]c1-2` [Compound 91, 4-(3-methyl-4-(3-(1-methyl-1H-indazol-6-yl)-1,4-dihydrothieno [2′,3′:4,5]cyclopenta [1,2-c]pyrazol-6-yl)benzyl)morpholine], the figure is 1 to 10 nM.
To `CN1CCN(c2ccc(-c3cc4c(s3)Cc3c(-c5ccc6cnn(C)c6c5)n[nH]c3-4)cn2)CC1` [Compound 85, 3-(1-methyl-1H-indazol-6-yl)-6-(6-(4-methyl-piperazin-1-yl)pyridin-3-yl)-1,4-dihydrothieno [2′,3′:4,5]cyclopenta [1,2-c]pyrazole] belongs under 1 nM.
For `Cn1ncc2ccc(-c3n[nH]c4c3Cc3sc(-c5ccc(CN6CCOCC6)c(F)c5F)cc3-4)cc21` [Compound 88, 4-(2,3-difluoro-4-(3-(1-methyl-1H-indazol-6-yl)-1,4-dihydrothieno [2′,3′:4,5]cyclopenta [1,2-c]pyrazol-6-yl)benzyl)morpholine], the IC50 was in the range of 1 to 10 nM.
As for `Cc1n[nH]c2cc(-c3n[nH]c4c3Cc3sc(-c5ccc(CN6CCOCC6)cc5)cc3-4)ccc12` [Compound 81, 4-(4-(3-(3-methyl-1H-indazol-6-yl)-1,4-dihydro-thieno[2′,3′:4,5]cyclopenta [1,2-c]pyrazol-6-yl)benzyl)morpholine], the figure is 1 to 10 nM; as for `Cn1ncc2ccc(-c3n[nH]c4c3Cc3sc(-c5ccc(N6CCOCC6)nc5)cc3-4)cc21` [Compound 82, 4-(5-(3-(1-methyl-1H-indazol-6-yl)-1,4-dihydro-thieno[2′,3′:4,5]cyclopenta [1,2-c]pyrazol-6-yl)pyridin-2-yl)morpholine], 1 to 10 nM; as for `CN1CCN(Cc2ccc(-c3cc4c(s3)Cc3c(-c5ccc6cnn(C)c6c5)n[nH]c3-4)cc2)CC1` [Compound 84, 3-(1-methyl-1H-indazol-6-yl)-6-(4-((4-methylpiperazin-1-yl)methyl)phenyl)-1,4-dihydrothieno [2′,3′:4,5]cyclopenta [1,2-c]pyrazole], under 1 nM.
As for `Cn1nnc2ccc(-c3n[nH]c4c3Cc3sc(-c5ccc(CN6CCOCC6)cc5)cc3-4)cc21` [Compound 89, 4-(4-(3-(1-methyl-1H-benzo[d][1,2,3]triazol-6-yl)-1,4-dihydrothieno [2′,3′:4,5]cyclopenta [1,2-c]pyrazol-6-yl)benzyl)morpholine], the IC50 lay within 1 to 10 nM.
Turning to `CN(C)Cc1ccc(-c2cc3c(s2)Cc2c(-c4ccc5cnn(C)c5c4)n[nH]c2-3)cc1` [Compound 94, N,N-dimethyl-1-(4-(3-(1-methyl-1H-indazol-6-yl)-1,4-dihydrothieno [2′,3′:4,5]cyclopenta [1,2-c]pyrazol-6-yl)phenyl)methanamine], the 50% inhibitory concentration (IC50) is 1 to 10 nM.
For `CN1CCN(Cc2ccc(-c3cc4c(s3)Cc3c(-c5ccc6cn[nH]c6c5)n[nH]c3-4)cc2)CC1` [Compound 83, 3-(1H-indazol-6-yl)-6-(4-((4-methylpiperazin-1-yl)methyl)phenyl)-1,4-dihydrothieno[2′,3′:4,5] cyclopenta[1,2-c]pyrazole], the IC50 was under 1 nM.
As for `Cn1ncc2ccc(-c3n[nH]c4c3Cc3sc(-c5ccnc(Cl)c5)cc3-4)cc21` [Compound 86, 6-(2-chloropyridin-4-yl)-3-(1-methyl-1H-indazol-6-yl)-1,4-dihydrothieno [2′,3′:4,5]cyclopenta [1,2-c]pyrazole], the figure is 1 to 10 nM; as for `CN1CCN(c2cc(-c3cc4c(s3)Cc3c(-c5ccc6cnn(C)c6c5)n[nH]c3-4)ccn2)CC1` [Compound 87, 3-(1-methyl-1H-indazol-6-yl)-6-(2-(4-methyl-piperazin-1-yl)pyridin-4-yl)-1,4-dihydrothieno [2′,3′:4,5]cyclopenta [1,2-c]pyrazole], under 1 nM; as for `CN(C)Cc1ccc(-c2cc3c(s2)Cc2c(-c4ccc5cnn(C)c5c4)n[nH]c2-3)cn1` [Compound 93, N,N-dimethyl-1-(5-(3-(1-methyl-1H-indazol-6-yl)-1,4-dihydrothieno [2′,3′:4,5]cyclopenta [1,2-c]pyrazol-6-yl)pyridin-2-yl)methanamine], 1 to 10 nM.
